Results reported in patent publication US20160081312A1, “MODEL OF ALZHEIMER'S DISEASE” (priority 2013, published 2016).

How the values were obtained:
Aβ-42 = Aβ-42 level in rat brain cortex and hippocampus, western blotting; format: in vivo, wistar rat
Procedure: (§1) All animal-handling procedures were carried out in accordance with the current regulations of the Indian Institute of Toxicology Research Animal Ethics Committee, and with its prior approval for using the animals. The pregnant female wistar rats were housed in a 12-h […] cycle environment with ad libitum diet and water. The rats were divided into six groups (n=30 per group), gavage-treated with the metal mixture (Table 1). The metal mixture treatment was at two concentrations (1× and 10×; Groups 1-3, Table 1) for dose-dependent study. To identify the synergistic nature, the animals were treated in mixture as well as individually with the metals (Group 1-6 of Table 1). The heavy metals were As, Cd and Pb, fed in the form of NaAsO2, CdCl2 and Pb(C2H3O2)2, respectively, in Milli Q water. The NaAsO2, and CdCl2 readily dissolved in water, while Pb(C2H3O2)2 was dissolved by adding 0.043% acetic acid in water. The dams (pregnant rats and lactating mother rats) were daily treated with the metals in water from gestation day 5 (G-05) until the pups weaned (postnatal day-21, P-21). From P-22, the postnatal rats were directly treated with the metals until P-90. The tissues were collected at P-24, P-60 or P-90. The male rats were selected for the study, and rats from separate litters served as independent subjects.
(§2) Tissues of the cerebral cortex and hippocampus from five to seven postnatal wistar rats were harvested, snap-frozen in liquid nitrogen, and stored at −80° C. until further investigation. SDS-PAGE and western blotting was performed with APP (1:1000), Aβ-40 (1:1000), Aβ-42 (1:1000), APP-CTF-β (1:1000), presenilin (1:1000), IL-1α (1:1000), IL-1β (1:1000) and IL-1R1 (1:1000), RAGE (1:1000) and pGP (1:1000). […] The samples were detected by chemiluminescence with super signal west femto max substrate. Relative expression of each protein was determined by densitometric quantification of blots using VersaDoc Gel Imaging System (BioRad, Hercules, CF). […]

Aβ-40 = experiment: Aβ1-40 level in rat cortex and hippocampus, ELISA; format: in vivo, wistar rat
Procedure: as §1

APP [1] = experiment: APP level in rat brain cortex and hippocampus, western blotting; format: in vivo, wistar rat
Procedure: as §1, §2

Aβ = Aβ level in cultured rat neurons and astrocytes; format: cell-based, wistar rat; details: memantine 5 μM, donepezil 10 μM, docosahexaenoic acid 10 μM; for effect on levels of Aβ in the cellular model of AD: Vitamin E 10 μM; for Fold reduction in Aβ: metal mixture-induced, rat astrocytes and neurons, α-tocopherol 10 μM
Procedure: (§3) The pregnant wistar rats were sacrificed by cervical dislocation and the embryos were removed on the 16th day of gestation. The embryonic brain tissues were mechanically dissociated into individual cells in dissection media containing Glucose (1M), sucrose (1 M), HEPES Buffer (1M) and Hank's salt (1×). The resulting cells were centrifuged (1,500 rpm, 5 min), resuspended in NEUROBASAL medium containing B-27 supplement (Invitrogen, Carlsbad, Calif.), L-glutamine (0.5 mM), penicillin (100 U/ml) and streptomycin (100 μg/ml) and plated into 60 mm dishes. The culture media was changed every 2 days.
(§4) The astrocytes from rat brain were isolated and cultured. Briefly, prefrontal cortices of 1-day-old wistar rats were dissected out and digested with trypsin for 10 min at 37° C. A single cell suspension was obtained by triturating, and the cells were seeded onto poly-L-lysine (100 μg/ml)-coated plates. The cultures were maintained in DMEM/F12 with 10% heat-inactivated fetal bovine serum, 100 U/ml penicillin, and […] streptomycin. The confluent cells were rinsed twice with serum-free media and then detached with 0.25% trypsin with ethylenediaminetetraacetic acid and sub-cultured.
(§5) The astrocytes and neurons were grown to 80% confluence, pre-incubated in reduced serum (0.5% fetal bovine serum [FBS]) medium for 2 h, and then treated with a mixture of As, Cd, and Pb (Group 1 and 2, Table 2 for neurons, and Table 3 for astrocytes) in the form of NaAsO2, CdCl2 and Pb(C2H3O2)2, respectively in Milli Q water for 16 h, and incubated in a humidified tissue culture incubator at 37° C. with 5% CO2-95% air. The NaAsO2, and CdCl2 readily dissolved in water, while Pb(C2H3O2)2 was dissolved by adding 0.043% acetic acid in water. To identify the synergistic nature, the astrocytes and neurons were treated with metal mixture as well as individual metals (Group 1-5 of Table 2 for neurons, and Table 3 for astrocytes).
(§6) The astrocytes and neurons were treated, washed with PBS and suspended in 100 μl of CelLytic™ MT Cell Lysis Reagent protease inhibitor cocktail (a mixture of 4-(2-aminoethyl)benzenesulfonyl fluoride, pepstatinA, E-64, bestatin, leupeptin, and aprotinin)] and kept on ice for 20 min. The cells were homogenized using a Teflon homogenizer and centrifuged at 15,000 rpm for 30 min at 4° C., and the supernatant was collected. SDS-PAGE and western blotting was done with APP (1:1000), Aβ-40 (1:1000), Aβ-42 (1:1000), IL-1α(1:1000), IL-1β (1:1000) and IL-1R1. […] The samples were detected by chemiluminescence with super signal west femto max substrate. Relative expression of each protein was determined by densitometric quantification of blots using VersaDoc Gel Imaging System (BioRad, Hercules, CF). […]

APP [2] = experiment: APP level in cultured rat neurons and astrocytes; format: cell-based, wistar rat; details: memantine 5 μM, donepezil 10 μM, docosahexaenoic acid 10 μM; for effect on levels of APP in the cellular model of AD: Vitamin E 10 μM; for Fold reduction in APP: metal mixture-induced, rat astrocytes and neurons, α-tocopherol 10 μM
Procedure: as §3, §4, §5, §6

[3] = memantine 10 mg/kg body weight, donepezil 1.5 mg/kg body weight
[4] = metal mixture-induced, rat brain, two week treatment, memantine 10 mg/kg, donepezil 1.5 mg/kg with 10X-MM in P-90 rats
[5] = hippocampal insertion, once at P-90 in 10X-MM-treated rats, dissected after 10 days

CC12CC3CC(C)(C1)CC(N)(C3)C2 [Memantine]
effect on Aβ1-42 in the non-transgenic wistar rat model of AD (Aβ-42; [3]): suppress
fold reduction in Aβ-42 (Aβ-42; [4]): 2.42 ± 0.0143 fold
effect on Aβ1-40 in the non-transgenic wistar rat model of AD (Aβ-40; [3]): suppress
fold reduction in Aβ-40 (Aβ-40; [4]): 2.54 ± 0.0099 fold
effect on APP in the non-transgenic wistar rat model of AD (APP [1]; [3]): suppress
Fold reduction in APP (APP [1]; [4]): 1.69 ± 0.0510 fold
effect on levels of Aβ in the cellular model of AD (Aβ): suppressed
Fold reduction in Aβ (Aβ): 1.4 ± 0.052 fold
effect on levels of APP in the cellular model of AD (APP [2]): suppressed
Fold reduction in APP (APP [2]): 1.3 ± 0.0392 fold

Cc1c(C)c2c(c(C)c1O)CC[C@@](C)(CCC[C@H](C)CCC[C@H](C)CCCC(C)C)O2 [α-tocopherol]
effect on levels of Aβ in the cellular model of AD (Aβ): suppressed
effect on levels of APP in the cellular model of AD (APP [2]): suppressed

CC/C=C\C/C=C\C/C=C\C/C=C\C/C=C\C/C=C\CCC(=O)O [Docosahexaenoic acid]
Fold reduction in Aβ (Aβ): 2.3 ± 0.0853 fold
Fold reduction in APP (APP [2]): 1.25 ± 0.0265 fold

B1: IL1-Ra: Rat recombinant IL-1 receptor antagonist, R&D systems (protein, UniProt P25086 27-178, looked up)
Interleukin-1 receptor …: HPAGKRPCKMQAFRIWDTNQKTFYLRNNQLIAGYLQGPNTKLEEKIDMVPIDFRNVFLGIHGGKLCLSCVKSGDDTKLQLEEVNITDLNKNKEEDKRFTFIRSETGPTTSFESLACPGWFLCTTLEADHPVSLTNTPKEPCTVTKFYFQEDQ
effect on Aβ1-42 in As, Cd and Pb-mixture treated rat brain (Aβ-42; [5]): suppressed
effect on APP in As, Cd and Pb-mixture treated rat brain (APP [1]; [5]): suppressed
